# Source: publication PMC7216583 (Parasites & Vectors, 2020)
# Where a name gives a salt, the structure may show the parent alone. Read-outs that look alike come from different tables or passages of the source.
# Assays:
# EGFR = system: EGFR; design: method as in S-inhibitor; conditions: ref S-inhibitor; cited from earlier work
# ErbB4 = system: ErbB4; design: method as in S-inhibitor; conditions: ref S-inhibitor; cited from earlier work
# [1] = system: Toxoplasma gondii RH-2F tachyzoites; assay: microbe, parasite or virus in culture; conditions: 72 h
# HER2/ErbB2 = system: HER2/ErbB2; design: method as in S-inhibitor; conditions: ref S-inhibitor; cited from earlier work
# ErbB3 = system: ErbB3; design: method as in S-inhibitor; conditions: ref S-inhibitor; cited from earlier work
# FGFR3 = system: FGFR3; design: method as in S-inhibitor; conditions: ref S-inhibitor; cited from earlier work
# FGFR1 = system: FGFR1; design: method as in S-inhibitor; conditions: ref S-inhibitor; cited from earlier work
# Plk1 = system: Plk1; design: method as in S-inhibitor catalog; conditions: vendor brief description; ref S-inhibitor catalog; cited from earlier work
# p110α [2] = system: p110α; design: method as in S-inhibitor catalog; conditions: vendor brief description; ref S-inhibitor catalog; cited from earlier work
# [3] = biological target: HIV-1 gp120 / CD4 receptor; design: method as in S-inhibitor catalog; conditions: in virus; vendor brief description; ref S-inhibitor catalog; read-out: EC50, inhibition of binding of HIV-1 gp120 to CD4 receptor; cited from earlier work
# Akt2 = system: Akt2; design: method as in S-inhibitor catalog; conditions: vendor brief description; ref S-inhibitor catalog; cited from earlier work
# HeLa cell line = system: HeLa cell line; design: method as in S-inhibitor catalog; conditions: vendor brief description; ref S-inhibitor catalog; read-out: IC50, inhibition of growth of HeLa; cited from earlier work
# MDA-MB-435 cell line = system: MDA-MB-435 cell line; design: method as in S-inhibitor catalog; conditions: vendor brief description; ref S-inhibitor catalog; read-out: IC50, inhibition of growth of MDA-MB-435; cited from earlier work
# H14 cell line = system: H14 cell line; design: method as in S-inhibitor catalog; conditions: vendor brief description; ref S-inhibitor catalog; read-out: IC50, inhibition of growth of H14; cited from earlier work
# HL60 cell line = system: HL60 cell line; design: method as in S-inhibitor catalog; conditions: vendor brief description; ref S-inhibitor catalog; read-out: IC50, inhibition of growth of HL60; cited from earlier work
# hERG K+ channel = conditions: cited from earlier work
# PDE4B = system: PDE4B; design: method as in S-inhibitor catalog; conditions: vendor brief description; ref S-inhibitor catalog; cited from earlier work
# LXRα/SRC1 = system: LXRα/SRC1; design: method as in S-inhibitor catalog; conditions: vendor brief description; ref S-inhibitor catalog; read-out: EC50, LXRα/SRC1 LiSA; cited from earlier work
# LXRα-GAL4 = system: LXRα-GAL4; design: method as in S-inhibitor catalog; conditions: vendor brief description; ref S-inhibitor catalog; cited from earlier work
# ALK3 = system: ALK3; design: method as in S-inhibitor catalog; conditions: vendor brief description; ref S-inhibitor catalog; cited from earlier work
# ALK2 = system: ALK2; design: method as in S-inhibitor catalog; conditions: vendor brief description; ref S-inhibitor catalog; cited from earlier work
# Src = system: Src; design: method as in S-inhibitor; conditions: ref S-inhibitor; cited from earlier work
# c-Raf = system: c-Raf; design: method as in S-inhibitor; conditions: ref S-inhibitor; cited from earlier work
# EphB4 = system: EphB4; design: method as in S-inhibitor; conditions: ref S-inhibitor; cited from earlier work
# VEGFR2 [4] = system: VEGFR2; design: method as in S-inhibitor; conditions: ref S-inhibitor; cited from earlier work
# Abl = system: Abl; design: method as in S-inhibitor; conditions: ref S-inhibitor; read-out: IC50, c-Abl; cited from earlier work
# mTORC2 = system: mTORC2; design: method as in S-inhibitor catalog; conditions: vendor brief description; ref S-inhibitor catalog; cited from earlier work
# mTORC1 = system: mTORC1; design: method as in S-inhibitor catalog; conditions: vendor brief description; ref S-inhibitor catalog; cited from earlier work
# p110γ = system: p110γ; design: method as in S-inhibitor; conditions: ref S-inhibitor; cited from earlier work
# p110β = system: p110β; design: method as in S-inhibitor; conditions: ref S-inhibitor; cited from earlier work
# p110δ = system: p110δ; design: method as in S-inhibitor; conditions: ref S-inhibitor; cited from earlier work
# p110α [5] = system: p110α; design: method as in S-inhibitor; conditions: ref S-inhibitor; cited from earlier work
# α7 nAChR = system: α7 nAChR; design: method as in S-inhibitor catalog; conditions: in α7*-expressing SH-EP1 cells; vendor brief description; ref S-inhibitor catalog; read-out: EC50, α7 nAChR positive allosteric modulation; cited from earlier work
# bFGF = system: bFGF; design: method as in S-inhibitor catalog; conditions: vendor brief description; ref S-inhibitor catalog; cited from earlier work
# VEGF-A = system: VEGF-A; design: method as in S-inhibitor catalog; conditions: vendor brief description; ref S-inhibitor catalog; cited from earlier work
# Syk = system: Syk; design: method as in S-inhibitor catalog; conditions: vendor brief description; ref S-inhibitor catalog; cited from earlier work
# MX1 = system: MX1; design: method as in S-inhibitor; conditions: ref S-inhibitor; read-out: IC50, MX1 cell line; cited from earlier work
# MV522 = system: MV522; design: method as in S-inhibitor; conditions: ref S-inhibitor; read-out: IC50, MV522 cell line; cited from earlier work
# P388 = system: P388; design: method as in S-inhibitor; conditions: ref S-inhibitor; read-out: IC50, P388 cell line; cited from earlier work
# Colo205 = system: Colo205; design: method as in S-inhibitor; conditions: ref S-inhibitor; read-out: IC50, Colo205 cell line; cited from earlier work
# SKOV3 = system: SKOV3; design: method as in S-inhibitor; conditions: ref S-inhibitor; read-out: IC50, SKOV3 cell line; cited from earlier work
# ALK5 = conditions: read-out: IC50, ALK5; ref S-inhibitor; cited from earlier work
# ALK4 = system: ALK4; design: method as in S-inhibitor; conditions: ref S-inhibitor; cited from earlier work
# c-Kit = system: c-Kit; design: method as in S-inhibitor catalog; conditions: vendor brief description; ref S-inhibitor catalog; cited from earlier work
# VEGFR3 = system: VEGFR3; design: method as in S-inhibitor catalog; conditions: vendor brief description; ref S-inhibitor catalog; cited from earlier work
# PDGFRβ = system: PDGFRβ; design: method as in S-inhibitor catalog; conditions: vendor brief description; ref S-inhibitor catalog; cited from earlier work
# VEGFR2 [6] = system: VEGFR2; design: method as in S-inhibitor catalog; conditions: vendor brief description; ref S-inhibitor catalog; cited from earlier work
# [7] = system: AVP-induced platelet aggregation; design: method as in S-inhibitor catalog; conditions: vendor brief description; ref S-inhibitor catalog; read-out: IC50, inhibition of AVP-induced platelet aggregation; cited from earlier work
# FAAH = system: FAAH; design: method as in S-inhibitor catalog; conditions: vendor brief description; ref S-inhibitor catalog; cited from earlier work
# Bcr/Abl = system: Bcr/Abl; design: method as in S-inhibitor catalog; conditions: vendor brief description; ref S-inhibitor catalog; cited from earlier work
# [8] = read-out: Parasite inhibition (%) mean, preliminary screen, mean
# [9] = read-out: Parasite inhibition (%) mean, preliminary screen of compound library, mean
smiles,measurement,setting,value
C=CC(=O)Nc1ccc2ncnc(Nc3ccc(OCc4cccc(F)c4)c(Cl)c3)c2c1 [AST-1306],IC50,EGFR,0.5 nM
same,IC50,ErbB4,0.8 nM
same,inhibition of growth at 5 µM,[1]; [8],-33.7%
CNC(=O)CN1CCC(Oc2cc3c(Nc4cccc(Cl)c4F)ncnc3cc2OC)CC1 [AZD8931],IC50,HER2/ErbB2,3 nM
same,IC50,ErbB3,4 nM
same,inhibition of growth at 5 µM,[1]; [8],-20%
CCN1CCN(c2ccc(Nc3cc(N(C)C(=O)Nc4c(Cl)c(OC)cc(OC)c4Cl)ncn3)cc2)CC1 [BGJ398 (NVP-BGJ398)],IC50,FGFR3,1 nM
same,IC50,FGFR1,0.9 nM
same,inhibition of growth at 5 µM,[1]; [8],-8.9%
CC[C@@H]1C(=O)N(C)c2cnc(Nc3ccc(C(=O)N[C@H]4CC[C@H](N5CCN(CC6CC6)CC5)CC4)cc3OC)nc2N1C(C)C [BI6727 (Volasertib)],IC50,Plk1,0.87 nM
same,inhibition of growth at 5 µM,[1]; [9],0.8%
Nc1cc(C(F)(F)F)c(-c2cc(N3CCOCC3)nc(N3CCOCC3)n2)cn1 [BKM120 (NVP-BKM120)],IC50,p110α [2],[…]
same,inhibition of growth at 5 µM,[1]; [9],41.3%
COc1cc[nH]c2ncc(C(=O)C(=O)N3CCN(C(=O)c4ccccc4)C[C@H]3C)c1-2 [BMS-806 (BMS 378806)],EC50,[3],0.85 to 26.5 nM
same,inhibition of growth at 5 µM,[1]; [9],0.3%
NC1(Cc2ccc(Cl)cc2)CCN(c2ncnc3[nH]ccc23)CC1 [CCT128930],IC50,Akt2,[…]
same,inhibition of growth at 5 µM,[1]; [9],-25.6%
C[C@@H]1CC[C@@]2(OC1)O[C@H]1C[C@H]3[C@@H]4CC=C5C[C@H](O[C@@H]6O[C@@H](CO)[C@@H](O[C@@H]7O[C@@H](C)[C@H](O)[C@@H](O)[C@@H]7O)[C@H](O)[C@H]6O[C@@H]6O[C@@H](C)[C@H](O)[C@@H](O)[C@H]6O)CC[C@]5(C)[C@@H]4CC[C@]3(C)[C@@H]1[C@H]2C [Dioscin (Collettiside III)],IC50,HeLa cell line,4500 nM
same,IC50,MDA-MB-435 cell line,2600 nM
same,IC50,H14 cell line,800 nM
same,inhibition of growth at 5 µM,[1]; [9],4.8%
same,IC50,HL60 cell line,7500 nM
CC1=NN(c2ccc(C)c(C)c2)C(=O)/C1=N/Nc1cccc(-c2cccc(C(=O)O)c2)c1O [Eltrombopag (SB-497115-GR)],inhibition of growth at 5 µM,[1]; [9],0.7%
same,IC50,hERG K+ channel,690 nM
COc1cccc(Nc2c(C(N)=O)cnc3c(C)cc(S(=O)(=O)c4cccc(C(=O)N(C)C)c4)cc23)c1 [GSK256066],IC50,PDE4B,0.0032 nM
same,inhibition of growth at 5 µM,[1]; [9],18.7%
O=C(O)Cc1cccc(OCCCN(Cc2cccc(C(F)(F)F)c2Cl)CC(c2ccccc2)c2ccccc2)c1 [GW3965 HCl],EC50,LXRα/SRC1,125 nM
same,EC50,LXRα-GAL4,190 nM
same,inhibition of growth at 5 µM,[1]; [9],-20.1%
c1ccc2c(-c3cnn4cc(-c5ccc(N6CCNCC6)cc5)cnc34)ccnc2c1 [LDN193189],IC50,ALK3,[…]
same,inhibition of growth at 5 µM,[1]; [9],21.7%
Cc1ccc(C(=O)Nc2cccc(C(F)(F)F)c2)cc1Nc1nc(-c2cccnc2)nc2c1cnn2C [NVP-BHG712],IC50,Src,1270 nM
same,IC50,c-Raf,395 nM
same,"ED50, EphB4",EphB4,25 nM
same,"ED50, VEGFR2",VEGFR2 [4],4200 nM
same,inhibition of growth at 5 µM,[1]; [8],-3.3%
same,IC50,Abl,1670 nM
COc1cccc2cc(-c3nc([C@H]4CC[C@H](C(=O)O)CC4)n4ncnc(N)c34)[nH]c12 [OSI-027],IC50,mTORC2,65 nM
same,IC50,mTORC1,22 nM
same,inhibition of growth at 5 µM,[1]; [9],31%
Cc1ccccc1-n1c(Cn2ncc3c(N)ncnc32)nc2cccc(C)c2c1=O [PIK-293],IC50,p110γ,10000 nM
same,IC50,p110β,25000 nM
same,IC50,p110δ,240 nM
same,IC50,p110α [5],100000 nM
same,inhibition of growth at 5 µM,[1]; [8],1.1%
COc1cc(OC)c(NC(=O)Nc2cc(C)on2)cc1Cl [PNU-120596],EC50,α7 nAChR,216 nM
same,inhibition of growth at 5 µM,[1]; [9],-38.8%
COc1ccc(COc2cc3oc(=O)c4cc(C(C)O)ccc4c3cc2OC)cc1 (stereo not shown) [Palomid 529],IC50,bFGF,30 nM
same,IC50,VEGF-A,10 nM
same,inhibition of growth at 5 µM,[1]; [9],-14.6%
COc1cc(Nc2ncc(F)c(Nc3ccc4c(n3)N(COP(=O)(O)O)C(=O)C(C)(C)O4)n2)cc(OC)c1OC [R788 (Fostamatinib)],IC50,Syk,[…]
same,inhibition of growth at 5 µM,[1]; [9],27.4%
Cc1ccc(C(=O)N(CCCN)[C@@H](c2oc3cc(Cl)ccc3c(=O)c2Cc2ccccc2)C(C)C)cc1 [SB 743921],IC50,MX1,0.06 nM
same,IC50,MV522,1.7 nM
same,IC50,P388,14.4 nM
same,IC50,Colo205,0.07 nM
same,inhibition of growth at 5 µM,[1]; [8],0.5%
same,IC50,SKOV3,0.2 nM
Cc1cccc(-c2[nH]c(C(C)(C)C)nc2-c2ccc3c(c2)OCO3)n1 [SB-505124],IC50,ALK5,47 nM
same,IC50,ALK4,129 nM
same,inhibition of growth at 5 µM,[1]; [8],-14.8%
CNC(=O)c1cc(COc2nnc(Nc3ccc(Cl)cc3)c3ccoc23)ccn1 [Telatinib (BAY 57-9352)],IC50,c-Kit,1 nM
same,IC50,VEGFR3,4 nM
same,IC50,PDGFRβ,15 nM
same,IC50,VEGFR2 [6],6 nM
same,inhibition of growth at 5 µM,[1]; [9],-15.6%
Cc1ccccc1C(=O)Nc1ccc(C(=O)N2CCCC(O)c3cc(Cl)ccc32)c(C)c1 (stereo not shown) [Tolvaptan (OPC-41061)],IC50,[7],1280 nM
same,inhibition of growth at 5 µM,[1]; [9],-4.3%
NC(=O)c1cccc(-c2cccc(OC(=O)NC3CCCCC3)c2)c1 [URB597],IC50,FAAH,4.6 nM
same,inhibition of growth at 5 µM,[1]; [9],2.1%
CCC[C@H](NC(=O)/C(C#N)=C/c1cccc(Br)n1)c1ccccc1 [WP1130],IC50,Bcr/Abl,1800 nM
same,inhibition of growth at 5 µM,[1]; [9],1.7%
